Data on 2 molecules can be found in US6387668B1, “Enantioselective epoxide hydrolases and genes encoding these” (Rijksuniversiteit Groningen, priority 1997, dated 2002).

For data set [1], the target named is epoxide hydrolase (Agrobacterium tumefaciens, UniProt O31243). In words: Kinetics of epoxide hydrolase with epichlorohydrin as substrate. The format is biochemical, Agrobacterium radiobacter. An excerpt: It is now possible to study the kinetics of epoxide hydrolase by performing rapid quench and stopped flow experiments. Stopped flow experiments are possible since substrate is able to quench the fluorescence signal of some of the tryptophans present in epoxide hydrolase. Also, it is possible to mutate (replace) the amino acids (e.g. tryptophans) that are involved in substrate binding. Either with site-directed mutagenesis or random mutagenesis, it is possible to modify the substrate specificity and the stereoselectivity of epoxide hydrolase. The epoxide hydrolase has the following characteristics.
The asymmetric hydrolysis of the substrate is generally conducted in aqueous solution. The pH of the solution is maintained by means of a buffer. Maximum enzyme activity is obtained at pH 9 but a range of pH 5 to 11 can be employed. The composition of the buffer can for example be Tris/H2SO4, potassium phosphate or glycine/NaOH. The maximum enzyme activity is obtained at a temperature of 50° C., but the reaction can be conducted at a temperature ranging from 5° C. to 65° C. The substrate concentration used to measure the enzyme activity is from 1 to 20 mM. In case of poorly soluble substrates, the water solubility can be increased by adding a miscible organic cosolvent such a DMSO. Also other organic solvents can be used. […]

Data set [2] is described as follows: Storage stability of recombinant epoxide hydrolase. The format is physicochemical. To be noted: 4° C., expressed in E.coli.

A value given as a limit tells only on which side of the number the result lay.

Regarding `ClCC1CO1` (stereo not drawn) [epichlorohydrin], in data set [1], the Michaelis constant (Km) (as a rule, the substrate concentration at which the rate is half of its maximum) is below 30 µM and the Vmax is given as 25 μmol min^−1.mg.protein^−1.

B1: epoxide hydrolase: 34 kDa monomeric enzyme (approximately 294 amino acids) from Agrobacterium radiobacter AD1, expressed in E.coli (protein)
chain: MTIRRPEDFKHYEVQLPDVKIHYVREGAGPTLLLLHGWPGFWWEWSKVIGPLAEHYDVIVPDLRGFGDSEKPDLNDLSKYSLDKAADDQAALLDALGIEKAYVVGHDFAAIVLHKFIRKYSDRVIKAAIFDPIQPDFGPVYFGLGHVHESWYSQFHQLDMAVEVVGSSREVCKKYFKHFFDHWSYRDELLTEEELEVHVDNCMKPDNIHGGFNYYRANIRPDAALWTDLDHTMSDLPVTMIWGLGDTCVPYAPLIEFVPKYYSNYTMETIEDCGHFLMVEKPEIAIDRIKTAFR
Consider B1, for which the Stability on storage result in data set [2] was “stable at 4 °C for at least half a year”.
